Assay results taken from patent US12593845B2 (priority 2019, dated 2026).

How the values were obtained:
[1] = system: apple scab pathogen (Venturia inaequalis); assay: Apple scab control test; type: in vivo; settings: 336 h, 125 ppm drug solution sprayed onto apple seedlings (Orin), lesion area ratio 2 weeks after inoculation
Experimental: (§1) 5 parts by weight of the dihydropyrimidine compound of the present invention, 93.5 parts by weight of N,N-dimethylformamide, and 1.5 parts by weight of polyoxyethylene sorbitan monolaurate (TWEEN® 20) were mixed and dissolved to obtain an emulsion (I) including 5% of an active ingredient.
(§2) The control value was calculated by the following expression. Control value (%)=100−{lesion area ratio in treated group/lesion area ratio in untreated group}×100 [Expression 1]
Water was added to the emulsion (I) such that the concentration of the dihydropyrimidine compound reached 125 ppm to dissolve the emulsion, and a drug solution was obtained. Subsequently, the drug solution was sprayed onto apple seedlings (variety: “Orin”, leaf stage: 3 to 4) cultivated in seedling pots. After air drying, the seedlings were inoculated with conidiospores of an apple scab pathogen (Venturia inaequalis) (treated group). As a control, apple seedlings that were not sprayed with the drug solution were inoculated in the same manner (untreated group). The seedlings were left to stand in a humidified room at 20° C. using a 12 hour light/dark cycle.
On the day 2 weeks after the inoculation, the leaves of the apple seedlings were visually observed to determine the lesion area ratio, and the control value was calculated.

[2] = system: Aspergillus niger; assay: Antimicrobial test against Aspergillus niger; type: cell-based; settings: 96 h, Vogel medium, 25° C., 4 days in the dark, turbidity at 405 nm, read-out: growth inhibition rate
Experimental: Spores of Aspergillus niger were added to and dispersed in a Vogel medium, and a dihydropyrimidine compound dissolved in dimethyl sulfoxide was added and mixed thereto at 25 ppm. The resulting solution was dispensed onto a 96-well microplate and cultivated in the dark at 25° C. for 4 days.
After the cultivation, the turbidity at a wavelength of 405 nm was measured by a microplate reader and compared with that in the untreated case to determine the growth inhibition of Aspergillus niger (%) was determined.

[3] = system: wheat powdery mildew pathogen (Erysiphe graminis f. sp. tritici); assay: Wheat powdery mildew control test; type: in vivo; settings: Blumeria graminis, 144 h; 125 ppm drug solution sprayed onto wheat seedlings (Chihoku); lesion area ratio 6 days after inoculation
Experimental: as §1, §2
Water was added to the emulsion (I) such that the concentration of the dihydropyrimidine compound reached 125 ppm to dissolve the emulsion, and a drug solution was obtained. Subsequently, the drug solution was sprayed onto wheat seedlings (variety: “Chihoku”, leaf stage: 1 to 2) cultivated in seedling pots. After air drying, conidiospores of a wheat powdery mildew pathogen (Erysiphe graminis f. sp. tritici) were sprinkled thereon for inoculation (treated group). As a control, wheat seedlings that were not sprayed with the drug solution were inoculated in the same manner as described above (untreated group). The seedlings were left to stand in a greenhouse at 20° C.
On the 6 days after the inoculation, the leaves of the wheat seedlings were visually observed to determine the lesion area ratio, and the control value was calculated.

Compound | pest or weed control at 125 ppm [1] [%] | inhibition at 25 ppm [2] [%] | pest or weed control at 125 ppm [3] [%]
CCON=Cc1cn(CC(OCCC#N)c2cc(F)ccc2OC)c(=O)n(CC(C)(C)C(=O)NC(C)C)c1=O (stereo not drawn) [A-7] | ≥ 75 | ≥ 50 | –
CCON=Cc1cn(CC(OCCC#N)c2cc(F)ccc2OC)c(=O)n(CCNC(=O)OC(C)(C)C)c1=O (stereo not drawn) [A-18] | ≥ 75 | – | ≥ 75
CCON=C(C)c1cn(CC(O)c2cc(F)ccc2OC)c(=O)n(C(C)C(=O)NC(C)C)c1=O (stereo not drawn) [A-31] | ≥ 75 | – | ≥ 75
CCO/N=C(\C)c1cn(CC(O)c2cc(F)ccc2OC)c(=O)n(CCNC(=O)C(C)C)c1=O (stereo not drawn) [A-37, N-(2-(5-(1-(ethoxyimino)ethyl)-3-(2-(5-fluoro-2-methoxyphenyl)-2-hydroxyethyl)-2,6-dioxo-3,6-dihydropyrimidin-1(2H)-yl)ethyl)isobutyramide] | ≥ 75 | ≥ 50 | –
CCO/N=C(\C)c1cn(CC(OCCC#N)c2cc(F)ccc2OC)c(=O)n(CCNC(=O)C(C)C)c1=O (stereo not drawn) [A-38, N-(2-(3-(2-(2-cyanoethoxy)-2-(5-fluoro-2-methoxyphenyl)ethyl)-5-(1-(ethoxyimino)ethyl)-2,6-dioxo-3,6-dihydropyrimidin-1(2H)-yl)ethyl)isobutyramide] | ≥ 75 | ≥ 50 | ≥ 75
CCO/N=C(\C)c1cn(CC(O)c2cc(F)ccc2OC)c(=O)n(C[C@H](C)NC(=O)C(C)C)c1=O (stereo partly drawn) [A-42] | ≥ 75 | ≥ 50 | ≥ 75
CCO/N=C(\C)c1cn(/C=C(\OC(=O)C(C)C)c2cc(F)ccc2OC)c(=O)n(C[C@H](C)NC(=O)C(C)C)c1=O [A-46] | ≥ 75 | – | ≥ 75
C/C(=N\OC(C)C)c1cn(CC(O)c2ccccc2OC(C)C)c(=O)n(C[C@H](C)NC(=O)C(C)C)c1=O (stereo partly drawn) [A-49] | ≥ 75 | – | ≥ 75
CCOc1ccccc1C(O)Cn1cc(/C(C)=N/OC(C)C)c(=O)n(C[C@H](C)NC(=O)C(C)C)c1=O (stereo partly drawn) [A-51] | ≥ 75 | ≥ 50 | ≥ 75
COc1ccc(F)cc1C(O)Cn1cc(C=NOC(C)C)c(=O)n(C(C)C(=O)N2CCOCC2)c1=O (stereo not drawn) [A-71] | ≥ 75 | – | ≥ 75
COc1ccc(F)cc1C(O)Cn1cc(C=NOC(C)C)c(=O)n(C(C)CNC(=O)C(C)C)c1=O (stereo not drawn) [A-79] | ≥ 75 | ≥ 50 | ≥ 75
COc1ccc(F)cc1C(Cn1cc(C=NOC(C)C)c(=O)n(C(C)C(=O)N2CCC2)c1=O)OCCC#N (stereo not drawn) [A-81] | ≥ 75 | – | ≥ 75
COc1ccc(F)cc1C(Cn1cc(C=NOC(C)C)c(=O)n(CC(=O)NC(C)C)c1=O)OCCC#N (stereo not drawn) [A-84] | ≥ 75 | – | ≥ 75
COc1ccc(F)cc1C(O)Cn1cc(C=NOC(C)C)c(=O)n(C(C)C(=O)N2CCC2)c1=O (stereo not drawn) [A-86] | – | – | ≥ 75
CCO/N=C(\C)c1cn(CC(OC(C)=O)c2cc(F)ccc2OC)c(=O)n(CCNC(=O)C(C)C)c1=O (stereo not drawn) [A-88] | ≥ 75 | ≥ 50 | –
COc1ccc(F)cc1C(O)Cn1cc(C=NOC(C)C)c(=O)n(C(C)C(=O)N2CCCCC2)c1=O (stereo not drawn) [A-90] | ≥ 75 | ≥ 50 | ≥ 75
CCON=Cc1cn(CC(O)c2cc(F)ccc2OC)c(=O)n(CC(C)(C)NC(=O)C(C)C)c1=O (stereo not drawn) [A-92] | – | – | ≥ 75
CCON=Cc1cn(CC(O)c2cc(F)ccc2OC)c(=O)n(C(C)C(=O)NC(C)C)c1=O (stereo not drawn) [A-94] | ≥ 75 | – | ≥ 75
